Test results from US6337091B1, “Matrix for controlled delivery of highly soluble pharmaceutical agents” (Temple University - of the Commonwealth System of Higher …, priority 1997, dated 2002).

Experiments:
[1] = Dissolution study of propranolol tablets in deionized water; format: physicochemical
Method: The dissolution study was performed in 1,000 ml deionized water at 37° C. and 100 rpm. Measurements were performed at wavelength 289 nm.

[2] = cited from earlier work
[3] = Dissolution study of diltiazem hydrochloride tablets, USP 23 apparatus II (paddle), deionized water; format: physicochemical
Method: The system was automated using an HP diode array UV spectrophotometer, 8452a with continuous sampling, using a peristaltic pump (HP flow control, 89092A) and Mckinet software (HP 89532K Multicell Kinetics Software) for data analysis. Measurements were performed at 238 nm. […] Fresh dissolution medium (5 mL), heated to 37° C., was added to the vessel to maintain constant volume. Each experimental ran (n=3) was done at least in duplicate. […]

[4] = cited from earlier work; remark: listed apart in the source

Structure (SMILES) | correlation coefficient of release profile (linearity) ([1]; control) | correlation coefficient of release profile (linearity) ([1]; propranolol granulated/coated with gelatin, in binary polymeric matrix) | correlation coefficient of release profile (linearity) ([1]; propranolol granulated/coated with tragacanth, in binary polymeric matrix) | protein binding [2] | correlation coefficient of release profile (linearity) ([3]; absence of either gelatin or tragacanth) | correlation coefficient of release profile (linearity) ([3]; diltiazem granulated/coated with gelatin, in binary polymeric matrix) | correlation coefficient of release profile (linearity) ([3]; diltiazem granulated/coated with tragacanth, in binary polymeric matrix) | degradation product, HPLC analysis (USP 23 method) ([3]; entire dissolution period) | bioavailability ([4]; due to extensive variable first-pass metabolism) [%] | clearance from plasma ([4]; in vivo) | elimination half-life ([4]; in vivo) [h]
CC(C)NCC(O)COc1cccc2ccccc12 (centres unmarked) [propranolol] | 0.927 | 0.994 | 0.989 | – | – | – | – | – | – | – | –
COc1ccc([C@@H]2Sc3ccccc3N(CCN(C)C)C(=O)[C@@H]2OC(C)=O)cc1 [diltiazem, Diltiazem] | – | – | – | greater than 90% | 0.946 | 0.997 | 0.979 | no degradation product | 30 to 60 | high clearance | 3 to 6
